By IC50 is commonly meant the concentration needed to halve the response being measured.

Drawing on patent US11655235B2, “Pyrrolidine and piperidine compounds” (YUHAN CORPORATION, priority 2019, dated 2023), this text covers IC50 for 14 compounds.

Holding throughout (assay type): biochemical
For one experiment, the target named is T1, Recombinant human FAP (Homo sapiens, UniProt Q12884).
T1 construct: purchased R&D systems
T1 sequence (Q12884 1-760): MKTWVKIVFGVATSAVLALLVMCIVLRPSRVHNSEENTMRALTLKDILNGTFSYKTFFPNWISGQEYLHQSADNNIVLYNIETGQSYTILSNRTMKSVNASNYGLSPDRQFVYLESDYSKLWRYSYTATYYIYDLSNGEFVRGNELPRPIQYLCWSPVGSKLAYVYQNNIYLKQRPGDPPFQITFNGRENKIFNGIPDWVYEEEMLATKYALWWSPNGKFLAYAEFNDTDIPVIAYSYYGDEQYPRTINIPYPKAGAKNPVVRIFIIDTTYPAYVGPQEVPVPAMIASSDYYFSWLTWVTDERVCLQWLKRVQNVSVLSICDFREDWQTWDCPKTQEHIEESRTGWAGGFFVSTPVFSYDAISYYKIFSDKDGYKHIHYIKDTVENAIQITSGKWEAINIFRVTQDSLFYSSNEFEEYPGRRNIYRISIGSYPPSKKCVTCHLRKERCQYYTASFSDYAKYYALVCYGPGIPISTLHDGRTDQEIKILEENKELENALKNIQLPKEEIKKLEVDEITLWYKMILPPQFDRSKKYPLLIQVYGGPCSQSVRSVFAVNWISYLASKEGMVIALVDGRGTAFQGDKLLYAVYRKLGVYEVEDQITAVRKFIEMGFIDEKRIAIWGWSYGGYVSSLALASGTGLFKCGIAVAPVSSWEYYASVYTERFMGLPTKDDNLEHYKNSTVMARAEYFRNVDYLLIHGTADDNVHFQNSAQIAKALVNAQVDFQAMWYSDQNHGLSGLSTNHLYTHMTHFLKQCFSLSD
Description: FAP inhibition, fluorogenic substrate Z-Gly-Pro-AMC. The method in brief: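 Eight-point compound dilutions (≤0.1% DMSO) were incubated at 25° C with 10 ng recombinant human FAP in Tris pH 7.5/1 M NaCl/BSA buffer and Z-Gly-Pro-AMC. Inhibition was taken as % drop in fluorescence rate (380/460 nm) against uninhibited control; IC50 came from a four-parameter logistic fit.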

Another experiment concerns the target T2, recombinant human DPP7 (Homo sapiens, UniProt Q9UHL4).
T2 construct: purchased R&D Systems
The experiment is described as follows: DPP7 inhibition, fluorogenic substrate Lys-Pro-AMC. In a few lines:
(§1)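 Inhibitors are titrated in an 8-point series into the enzyme's assay buffer (DMSO no more than 0.5%). Substrate cleavage at 25 °C is followed by fluorescence, excitation 380 nm and emission 460 nm. IC50 values come from a four-variable logistic model.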

In a further experiment the target is T3, recombinant human DPP8 (Homo sapiens, UniProt Q6V1X1).
T3 construct: purchased PBS Bioscience
Description: DPP8 inhibition, fluorogenic substrate Z-Ala-Pro-AMC. In a few lines:
as §1

The target of a further experiment is T4, recombinant human DPP9 (Homo sapiens, UniProt Q86TI2).
T4 construct: purchased R&D Systems
The experiment is described as follows: DPP9 inhibition, fluorogenic substrate H-Gly-Pro-AMC. The method in brief:
as §1

A further experiment deals with T5, recombinant human PREP (Homo sapiens, UniProt P48147).
T5 construct: purchased R&D System
T5 sequence (P48147 1-710): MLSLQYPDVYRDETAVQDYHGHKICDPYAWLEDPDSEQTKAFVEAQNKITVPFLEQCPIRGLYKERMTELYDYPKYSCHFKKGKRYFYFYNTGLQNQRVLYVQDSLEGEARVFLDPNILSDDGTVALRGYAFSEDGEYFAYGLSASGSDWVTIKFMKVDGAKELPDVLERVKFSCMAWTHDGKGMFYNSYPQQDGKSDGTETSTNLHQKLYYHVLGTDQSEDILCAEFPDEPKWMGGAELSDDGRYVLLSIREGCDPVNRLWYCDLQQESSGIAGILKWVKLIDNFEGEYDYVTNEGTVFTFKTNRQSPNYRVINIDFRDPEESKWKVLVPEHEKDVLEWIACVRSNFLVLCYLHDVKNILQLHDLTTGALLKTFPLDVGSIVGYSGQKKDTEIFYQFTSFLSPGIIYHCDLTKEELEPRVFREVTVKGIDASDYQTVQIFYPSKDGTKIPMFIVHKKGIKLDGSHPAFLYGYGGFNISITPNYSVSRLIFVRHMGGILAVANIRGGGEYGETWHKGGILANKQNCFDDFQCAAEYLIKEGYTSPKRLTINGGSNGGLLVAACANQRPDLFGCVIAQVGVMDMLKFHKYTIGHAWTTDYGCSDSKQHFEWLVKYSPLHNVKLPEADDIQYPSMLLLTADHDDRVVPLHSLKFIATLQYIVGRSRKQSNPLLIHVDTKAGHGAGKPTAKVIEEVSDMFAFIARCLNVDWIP
Description: PREP inhibition, fluorogenic substrate Z-Gly-Pro-AMC. The conditions noted are these: Inhibitory Activity (IC50, nM) PREP. In a few lines:
as §1

A further experiment concerns the target DPP4 (Homo sapiens, UniProt P27487). Description: DPP4 inhibition, fluorogenic substrate H-Gly-Pro-AMC. Set-up: purchased R&D Systems.
The mark [1] stands for this setting: 25° C., Z-Gly-Pro-AMC substrate.
Setting [2] is: 25° C., Z-Ala-Pro-AMC substrate.
[3] abbreviates: 25° C., H-Gly-Pro-AMC substrate.

Molecules are shown by their SMILES. Like-named read-outs stand apart in the source and are kept apart here.

T3 sequence (Q6V1X1 whole entry): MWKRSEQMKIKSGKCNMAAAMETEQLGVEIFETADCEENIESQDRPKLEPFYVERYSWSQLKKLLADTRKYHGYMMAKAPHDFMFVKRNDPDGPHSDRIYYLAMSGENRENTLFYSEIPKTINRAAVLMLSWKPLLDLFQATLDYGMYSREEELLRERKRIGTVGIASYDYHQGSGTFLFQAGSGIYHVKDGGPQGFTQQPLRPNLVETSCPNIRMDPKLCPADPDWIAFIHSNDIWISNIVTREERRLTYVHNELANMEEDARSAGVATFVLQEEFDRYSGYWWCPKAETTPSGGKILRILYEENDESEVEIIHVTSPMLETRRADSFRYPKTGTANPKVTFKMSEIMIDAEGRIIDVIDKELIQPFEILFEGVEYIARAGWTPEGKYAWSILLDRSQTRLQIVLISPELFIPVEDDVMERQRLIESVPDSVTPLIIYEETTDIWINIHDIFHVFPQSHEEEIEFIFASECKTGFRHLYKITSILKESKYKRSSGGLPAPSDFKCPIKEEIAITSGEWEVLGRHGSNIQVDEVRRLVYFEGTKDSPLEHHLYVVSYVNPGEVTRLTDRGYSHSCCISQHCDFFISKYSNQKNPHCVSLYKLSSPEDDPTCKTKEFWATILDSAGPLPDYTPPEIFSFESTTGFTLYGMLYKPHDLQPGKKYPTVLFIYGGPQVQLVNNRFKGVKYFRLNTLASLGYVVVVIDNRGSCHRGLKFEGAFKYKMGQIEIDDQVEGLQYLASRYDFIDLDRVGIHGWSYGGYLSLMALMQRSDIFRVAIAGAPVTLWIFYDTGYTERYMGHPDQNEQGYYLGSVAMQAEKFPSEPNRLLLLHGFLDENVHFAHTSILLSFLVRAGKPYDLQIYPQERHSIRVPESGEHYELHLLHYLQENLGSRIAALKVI
DPP4, sequence (P27487 whole entry): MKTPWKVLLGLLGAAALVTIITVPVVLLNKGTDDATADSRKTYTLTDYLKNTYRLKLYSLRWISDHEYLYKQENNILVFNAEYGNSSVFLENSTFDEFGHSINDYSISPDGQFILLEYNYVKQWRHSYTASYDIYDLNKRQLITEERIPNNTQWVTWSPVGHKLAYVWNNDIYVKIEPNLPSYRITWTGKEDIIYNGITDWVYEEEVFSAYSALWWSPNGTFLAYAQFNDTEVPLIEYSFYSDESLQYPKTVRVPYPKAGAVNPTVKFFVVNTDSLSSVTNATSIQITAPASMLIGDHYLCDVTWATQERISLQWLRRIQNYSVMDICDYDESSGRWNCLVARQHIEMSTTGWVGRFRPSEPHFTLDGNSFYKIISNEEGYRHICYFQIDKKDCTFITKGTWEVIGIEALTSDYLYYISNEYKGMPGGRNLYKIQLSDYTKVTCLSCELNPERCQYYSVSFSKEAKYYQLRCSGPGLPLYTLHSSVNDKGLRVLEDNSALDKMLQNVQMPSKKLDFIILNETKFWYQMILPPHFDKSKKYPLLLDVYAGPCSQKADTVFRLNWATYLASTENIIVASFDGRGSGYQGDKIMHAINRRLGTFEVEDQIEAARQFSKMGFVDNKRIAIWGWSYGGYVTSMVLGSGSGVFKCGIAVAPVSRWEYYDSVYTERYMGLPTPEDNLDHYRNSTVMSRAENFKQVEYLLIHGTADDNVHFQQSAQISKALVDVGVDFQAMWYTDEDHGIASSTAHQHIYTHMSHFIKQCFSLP
T4 sequence (Q86TI2 whole entry): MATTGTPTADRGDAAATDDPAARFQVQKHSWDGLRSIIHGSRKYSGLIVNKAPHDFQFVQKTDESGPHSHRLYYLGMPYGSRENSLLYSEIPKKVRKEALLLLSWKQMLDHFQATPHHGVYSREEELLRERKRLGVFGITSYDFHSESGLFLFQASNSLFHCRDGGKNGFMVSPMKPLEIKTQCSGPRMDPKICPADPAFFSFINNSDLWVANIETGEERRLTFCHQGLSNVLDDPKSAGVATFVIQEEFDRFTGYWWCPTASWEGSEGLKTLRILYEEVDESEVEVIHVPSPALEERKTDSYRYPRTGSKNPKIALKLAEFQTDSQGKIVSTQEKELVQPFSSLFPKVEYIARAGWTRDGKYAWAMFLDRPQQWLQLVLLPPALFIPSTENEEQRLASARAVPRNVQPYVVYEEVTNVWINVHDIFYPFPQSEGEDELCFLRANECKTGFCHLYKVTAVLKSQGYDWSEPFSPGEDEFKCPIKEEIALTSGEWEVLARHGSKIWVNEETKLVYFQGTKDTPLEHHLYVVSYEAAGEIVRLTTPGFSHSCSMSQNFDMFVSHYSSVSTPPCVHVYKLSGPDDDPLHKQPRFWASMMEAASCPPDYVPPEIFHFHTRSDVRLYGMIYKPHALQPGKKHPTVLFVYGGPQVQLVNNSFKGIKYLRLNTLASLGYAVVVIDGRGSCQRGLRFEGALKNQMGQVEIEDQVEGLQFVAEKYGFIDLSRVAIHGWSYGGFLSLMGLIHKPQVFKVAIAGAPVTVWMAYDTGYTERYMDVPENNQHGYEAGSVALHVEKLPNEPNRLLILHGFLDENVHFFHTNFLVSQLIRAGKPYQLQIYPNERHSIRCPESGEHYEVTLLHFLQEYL

As to `Cc1ccc2ncccc2c1NC1CCN(CC(=O)N2CCC[C@H]2C#N)CC1` [Example 122, (S)-1-(2-(4-((6-methylquinolin-5-yl)amino)piperidin-1-yl)acetyl)pyrrolidine-2-carbonitrile], the IC50 was 0.445 µM on Recombinant human FAP (setting [1]); greater than 100 µM at recombinant human DPP7; greater than 100 µM on recombinant human DPP8 (setting [2]); greater than 100 µM at recombinant human DPP9 (setting [3]); 23700 nM on recombinant human PREP (setting [1]); greater than 10 µM on DPP4 (setting [3]).
Turning to `N#C[C@@H]1CCCN1C(=O)CN1CCC(Nc2cc(F)cc3ncccc23)CC1` [Example 123, (S)-1-(2-(4-((7-fluoroquinolin-5-yl)amino)piperidin-1-yl)acetyl)pyrrolidine-2-carbonitrile], the IC50 at Recombinant human FAP (setting [1]) is 0.00241 µM; on recombinant human DPP7, 1.28 µM; on recombinant human DPP8 (setting [2]), greater than 30 µM; at recombinant human DPP9 (setting [3]), 44.9 µM; on recombinant human PREP (setting [1]), 20100 nM; at DPP4 (setting [3]), greater than 10 µM.
In the case of `COc1cc(NC2CCN(CC(=O)N3CCC[C@H]3C#N)CC2)c2cccnc2c1` [Example 124, (S)-1-(2-(4-((7-methoxyquinolin-5-yl)amino)piperidin-1-yl)acetyl)pyrrolidine-2-carbonitrile], the IC50 on Recombinant human FAP (setting [1]) was 0.00381 µM; on recombinant human DPP7, 0.518 µM; on recombinant human DPP8 (setting [2]) it was 46.8 µM; at recombinant human DPP9 (setting [3]), 82.7 µM; on recombinant human PREP (setting [1]) it was 16100 nM; at DPP4 (setting [3]) it was greater than 10 µM.
As to `COc1ccc(NC2CCN(CC(=O)N3CCC[C@H]3C#N)CC2)c2cccnc12` [Example 125, (S)-1-(2-(4-((8-methoxyquinolin-5-yl)amino)piperidin-1-yl)acetyl)pyrrolidine-2-carbonitrile], the IC50 at Recombinant human FAP (setting [1]) was 0.0055 µM; at recombinant human DPP7, 5.55 µM; on recombinant human DPP8 (setting [2]), 33.7 µM; on recombinant human DPP9 (setting [3]), greater than 100 µM; at recombinant human PREP (setting [1]) it was 28900 nM; on DPP4 (setting [3]) it was greater than 10 µM.
As to `N#C[C@@H]1C[C@H](F)CN1C(=O)CN1CCC(Oc2ccnc3ccc(F)cc23)CC1` [Example 126, (2S,4S)-4-fluoro-1-(2-(4-((6-fluoroquinolin-4-yl)oxy)piperidin-1-yl)acetyl)pyrrolidine-2-carbonitrile], the IC50 came to 0.00084 µM on Recombinant human FAP (setting [1]); 10.4 µM at recombinant human DPP7; 16.4 µM at recombinant human DPP8 (setting [2]); 11 µM on recombinant human DPP9 (setting [3]); 1130 nM on recombinant human PREP (setting [1]); 7.96 µM at DPP4 (setting [3]).
Turning to `N#C[C@@H]1C[C@H](F)CN1C(=O)CN1CCC(Oc2ccnc3ccc(Cl)cc23)CC1` [Example 127, (2S,4S)-1-(2-(4-((6-chloroquinolin-4-yl)oxy)piperidin-1-yl)acetyl)-4-fluoropyrrolidine-2-carbonitrile], the IC50 was 0.00065 µM on Recombinant human FAP (setting [1]); 9.23 µM at recombinant human DPP7; 8.73 µM at recombinant human DPP8 (setting [2]); 23.7 µM on recombinant human DPP9 (setting [3]); 621 nM on recombinant human PREP (setting [1]); greater than 10 µM on DPP4 (setting [3]).
Consider `COc1ccc2c(OC3CCN(CC(=O)N4C[C@@H](F)C[C@H]4C#N)CC3)ccnc2c1` [Example 129, (2S,4S)-4-fluoro-1-(2-(4-((7-methoxyquinolin-4-yl)oxy)piperidin-1-yl)acetyl)pyrrolidine-2-carbonitrile], for which the IC50 on Recombinant human FAP (setting [1]) was 0.00266 µM; at recombinant human DPP7, 0.642 µM; on recombinant human DPP8 (setting [2]), 9.84 µM; at recombinant human DPP9 (setting [3]), 4.85 µM; at recombinant human PREP (setting [1]), 161 nM; at DPP4 (setting [3]) it was greater than 10 µM.
Turning to `COc1cc2nccc(OC3CCN(CC(=O)N4C[C@@H](F)C[C@H]4C#N)CC3)c2cc1OC` [Example 130, (2S,4S)-1-(2-(4-((6,7-dimethoxyquinolin-4-yl)oxy)piperidin-1-yl)acetyl)-4-fluoropyrrolidine-2-carbonitrile], the IC50 was 0.00125 µM at Recombinant human FAP (setting [1]); 0.904 µM on recombinant human DPP7; 10.4 µM at recombinant human DPP8 (setting [2]); 5.97 µM on recombinant human DPP9 (setting [3]); 2340 nM at recombinant human PREP (setting [1]); greater than 10 µM on DPP4 (setting [3]).
Take `Cc1cnc2cccc(NC3CCN(CC(=O)N4C[C@@H](F)C[C@H]4C#N)CC3)c2c1` [Example 131, (2S,4S)-4-fluoro-1-(2-(4-((3-methylquinolin-5-yl)amino)piperidin-1-yl)acetyl)pyrrolidine-2-carbonitrile]: the IC50 on Recombinant human FAP (setting [1]) is 0.00273 µM; on recombinant human DPP7 it was 0.61 µM; on recombinant human DPP8 (setting [2]), 8.26 µM; at recombinant human DPP9 (setting [3]) it was 2.78 µM; at recombinant human PREP (setting [1]) it was 7920 nM; on DPP4 (setting [3]) it was 3.45 µM.
As for `N#C[C@@H]1C[C@H](F)CN1C(=O)CN1CCC(Nc2cc(F)cc3ncccc23)CC1` [Example 132, (2S,4S)-4-fluoro-1-(2-(4-((7-fluoroquinolin-5-yl)amino)piperidin-1-yl)acetyl)pyrrolidine-2-carbonitrile], the IC50 at Recombinant human FAP (setting [1]) was 0.00217 µM; on recombinant human DPP7 it was 0.492 µM; at recombinant human DPP8 (setting [2]), 13.9 µM; at recombinant human DPP9 (setting [3]), 3.64 µM; at recombinant human PREP (setting [1]), 2820 nM; against DPP4 (setting [3]) it was 7.43 µM.
Take `COc1cc(NC2CCN(CC(=O)N3C[C@@H](F)C[C@H]3C#N)CC2)c2cccnc2c1` [Example 133, (2S,4S)-4-fluoro-1-(2-(4-((7-methoxyquinolin-5-yl)amino)piperidin-1-yl)acetyl)pyrrolidine-2-carbonitrile]: the IC50 turned out to be 0.00237 µM at Recombinant human FAP (setting [1]); 0.153 µM on recombinant human DPP7; 6.48 µM on recombinant human DPP8 (setting [2]); 6 µM on recombinant human DPP9 (setting [3]); 2600 nM on recombinant human PREP (setting [1]); 6.02 µM at DPP4 (setting [3]).
For `COc1ccc(NC2CCN(CC(=O)N3C[C@@H](F)C[C@H]3C#N)CC2)c2cccnc12` [Example 135, (2S,4S)-4-fluoro-1-(2-(4-((8-methoxyquinolin-5-yl)amino)piperidin-1-yl)acetyl)pyrrolidine-2-carbonitrile], the IC50 was determined as 0.00347 µM on Recombinant human FAP (setting [1]); 1.02 µM on recombinant human DPP7; 5.78 µM on recombinant human DPP8 (setting [2]); 3.44 µM at recombinant human DPP9 (setting [3]); 4990 nM on recombinant human PREP (setting [1]); 4.14 µM at DPP4 (setting [3]).
With `COc1ccc2c(C(=O)N[C@H]3CCN(CC(=O)N4C[C@@H](F)C[C@H]4C#N)C3)coc2c1` [Example 136, 6-methoxy-N-[(3S)-1-[2-oxo-2-[(2S,4S)-2-cyano-4-fluoro-pyrrolidin-1-yl]ethyl]pyrrolidin-3-yl]benzofuran-3-carboxamide], the IC50 on Recombinant human FAP (setting [1]) is 0.0123 µM; at recombinant human DPP7, 1.95 µM; at recombinant human DPP8 (setting [2]), 22.3 µM; on recombinant human DPP9 (setting [3]) it was 14.5 µM; at recombinant human PREP (setting [1]), 5150 nM; on DPP4 (setting [3]), 9.03 µM.
For `N#C[C@@H]1CCCN1C(=O)CN1CC[C@H](Nc2cnc3ccccc3c2)C1` [Example 229, (2S)-1-[2-[(3S)-3-(3-quinolylamino)pyrrolidin-1-yl]acetyl]pyrrolidine-2-carbonitrile], the IC50 was 0.0168 µM at Recombinant human FAP (recombinant human FAP, substrate Z-Gly-Pro-AMC); 1.16 µM at recombinant human DPP7 (recombinant human DPP7); greater than 100 µM on recombinant human DPP8 (recombinant human DPP8); 36.3 µM on recombinant human DPP9 (recombinant human DPP9); 4840 nM on recombinant human PREP (recombinant human PREP); greater than 10 µM at DPP4 (recombinant human DPP4).
